# Data taken from PubChem BioAssay AID248 (DTP/NCI, 2004).
# Values joined by “and” are separate entries in the source; they are usually repeats but may differ in a detail not shown here. Equal values may be shown once. Inconclusive results and toxic doses are left out.
# System: L1210 leukemia ip in BDF1 mice, survival T/C
# Assay: NCI In Vivo Anticancer Drug Screen. Data for tumor model L1210 Leukemia (intraperitoneal) in B6D2F1 (BDF1) mice
# Conditions: higher = longer survival
# How it was run: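 Survival endpoint. Drug-treated group vs vehicle group, expressed as T divided by C. Tumor passaged by transplantation.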
# [1] = endpoint: mean survival time, dose: 100.0 mg/kg/injection, schedule: Q01DX001 (ip), vehicle: Klucel (hydroxypropylcellulose) (HPC)
# [2] = endpoint: mean survival time, dose: 200.0 mg/kg/injection, schedule: Q01DX001 (ip), vehicle: Klucel (hydroxypropylcellulose) (HPC)
compound,measurement,setting,value
C/C(=N/N=C(N)N)c1ccc(NC(=O)Nc2ccc(/C(C)=N/N=C(N)N)cc2)cc1,T/C,"endpoint: mean survival time, dose: 8.0 mg/kg/injection, schedule: Q03HX016 (ip), vehicle: other",159 % of control
same,T/C,"endpoint: mean survival time, dose: 16.0 mg/kg/injection, schedule: Q01DX005 (ip), vehicle: other",179 % of control
same,T/C,"endpoint: mean survival time, dose: 16.0 mg/kg/injection, schedule: Q01DX009 (ip), vehicle: other",236 % of control
same,T/C,"endpoint: mean survival time, dose: 20.0 mg/kg/injection, schedule: Q01DX005 (ip), vehicle: saline",121 % of control
same,T/C,"endpoint: mean survival time, dose: 32.0 mg/kg/injection, schedule: Q01DX005 (ip), vehicle: other",213 % of control
same,T/C,"endpoint: mean survival time, dose: 32.0 mg/kg/injection, schedule: Q01DX009 (ip), vehicle: other",239 % of control
same,T/C,"endpoint: mean survival time, dose: 32.0 mg/kg/injection, schedule: Q01DX009 (ip), vehicle: water",154 % of control and 205 % of control
same,T/C,"endpoint: mean survival time, dose: 40.0 mg/kg/injection, schedule: Q01DX005 (ip), vehicle: saline",159 % of control
same,T/C,"endpoint: mean survival time, dose: 53.0 mg/kg/injection, schedule: Q01DX009 (ip), vehicle: water",218 % of control and 255 % of control
same,T/C,"endpoint: mean survival time, dose: 64.0 mg/kg/injection, schedule: Q01DX001 (ip), vehicle: other",116 % of control
same,T/C,"endpoint: mean survival time, dose: 64.0 mg/kg/injection, schedule: Q01DX001 (oral), vehicle: other",111 % of control
same,T/C,"endpoint: mean survival time, dose: 64.0 mg/kg/injection, schedule: Q01DX009 (oral), vehicle: other",111 % of control
same,T/C,"endpoint: mean survival time, dose: 64.0 mg/kg/injection, schedule: Q04DX003 (ip), vehicle: other",159 % of control
same,T/C,"endpoint: mean survival time, dose: 64.0 mg/kg/injection, schedule: Q08DX002 (ip), vehicle: other",122 % of control
same,T/C,"endpoint: mean survival time, dose: 80.0 mg/kg/injection, schedule: Q01DX005 (ip), vehicle: saline",206 % of control
same,T/C,"endpoint: mean survival time, dose: 88.0 mg/kg/injection, schedule: Q01DX009 (ip), vehicle: water",223 % of control and 251 % of control
same,T/C,"endpoint: mean survival time, dose: 128.0 mg/kg/injection, schedule: Q01DX001 (oral), vehicle: other",101 % of control
same,T/C,"endpoint: mean survival time, dose: 128.0 mg/kg/injection, schedule: Q01DX009 (oral), vehicle: other",106 % of control
same,T/C,"endpoint: mean survival time, dose: 147.0 mg/kg/injection, schedule: Q01DX009 (ip), vehicle: water",323 % of control
same,T/C,"endpoint: mean survival time, dose: 160.0 mg/kg/injection, schedule: Q01DX005 (ip), vehicle: saline",197 % of control
same,T/C,"endpoint: mean survival time, dose: 245.0 mg/kg/injection, schedule: Q01DX009 (ip), vehicle: water",227 % of control
same,T/C,"endpoint: mean survival time, dose: 256.0 mg/kg/injection, schedule: Q01DX001 (oral), vehicle: other",101 % of control
same,T/C,"endpoint: mean survival time, dose: 256.0 mg/kg/injection, schedule: Q01DX009 (oral), vehicle: other",108 % of control
same,T/C,"endpoint: mean survival time, dose: 320.0 mg/kg/injection, schedule: Q01DX005 (ip), vehicle: saline",173 % of control
same,T/C,"endpoint: mean survival time, dose: 512.0 mg/kg/injection, schedule: Q01DX001 (oral), vehicle: other",96 % of control
same,T/C,"endpoint: mean survival time, dose: 512.0 mg/kg/injection, schedule: Q01DX009 (oral), vehicle: other",108 % of control
same,T/C,"endpoint: mean survival time, dose: 1024.0 mg/kg/injection, schedule: Q01DX001 (oral), vehicle: other",97 % of control
same,T/C,"endpoint: mean survival time, dose: 1024.0 mg/kg/injection, schedule: Q01DX009 (oral), vehicle: other",109 % of control
same,T/C,"endpoint: median survival time, dose: 5.0 mg/kg/injection, schedule: Q03HX024 (ip), vehicle: water",152 % of control
same,T/C,"endpoint: median survival time, dose: 15.0 mg/kg/injection, schedule: Q03HX024 (ip), vehicle: water",302 % of control
same,T/C,"endpoint: median survival time, dose: 30.0 mg/kg/injection, schedule: Q03HX024 (ip), vehicle: water",34 % of control
same,T/C,"endpoint: median survival time, dose: 45.0 mg/kg/injection, schedule: Q03HX024 (ip), vehicle: water",31 % of control
CCCCCCCCCCCC[N+](C)(C)Cc1cc(=O)c(O)co1,T/C,"endpoint: mean survival time, dose: 12.5 mg/kg/injection, schedule: Q04DX002 (ip), vehicle: saline",94 % of control
same,T/C,"endpoint: mean survival time, dose: 25.0 mg/kg/injection, schedule: Q04DX002 (ip), vehicle: saline",105 % of control
same,T/C,"endpoint: mean survival time, dose: 50.0 mg/kg/injection, schedule: Q04DX002 (ip), vehicle: saline",115 % of control
CC1(C)C=CN(c2ccccc2)C(=O)O1,T/C,"endpoint: mean survival time, dose: 100.0 mg/kg/injection, schedule: Q04DX002 (ip), vehicle: Klucel (hydroxypropylcellulose) (HPC)",94 % of control
same,T/C,"endpoint: mean survival time, dose: 200.0 mg/kg/injection, schedule: Q04DX002 (ip), vehicle: Klucel (hydroxypropylcellulose) (HPC)",98 % of control
same,T/C,"endpoint: mean survival time, dose: 400.0 mg/kg/injection, schedule: Q04DX002 (ip), vehicle: Klucel (hydroxypropylcellulose) (HPC)",98 % of control
O=C(C1OC1c1ccccc1)C1OC1c1ccccc1 (stereo not drawn),T/C,"endpoint: mean survival time, dose: 100.0 mg/kg/injection, schedule: Q01DX009 (ip), vehicle: Klucel (hydroxypropylcellulose) (HPC)",98 % of control
same,T/C,"endpoint: mean survival time, dose: 200.0 mg/kg/injection, schedule: Q01DX009 (ip), vehicle: Klucel (hydroxypropylcellulose) (HPC)",101 % of control
same,T/C,"endpoint: mean survival time, dose: 400.0 mg/kg/injection, schedule: Q01DX009 (ip), vehicle: Klucel (hydroxypropylcellulose) (HPC)",95 % of control
O=c1c(Br)c(Cl)nc2ccccn12,T/C,"endpoint: mean survival time, dose: 100.0 mg/kg/injection, schedule: Q01DX001 (ip), vehicle: saline",95 % of control
same,T/C,"endpoint: mean survival time, dose: 200.0 mg/kg/injection, schedule: Q01DX001 (ip), vehicle: saline",96 % of control
same,T/C,"endpoint: mean survival time, dose: 400.0 mg/kg/injection, schedule: Q01DX001 (ip), vehicle: saline",93 % of control
Brc1ccccc1N=Nc1ccccc1Br,T/C,"endpoint: mean survival time, dose: 100.0 mg/kg/injection, schedule: Q04DX003 (ip), vehicle: saline with Tween-80",92 % of control
same,T/C,"endpoint: mean survival time, dose: 200.0 mg/kg/injection, schedule: Q04DX003 (ip), vehicle: saline with Tween-80",91 % of control
same,T/C,"endpoint: mean survival time, dose: 400.0 mg/kg/injection, schedule: Q04DX003 (ip), vehicle: saline with Tween-80",107 % of control
Cc1csc(C)n1.Cc1csc(C)n1.Cc1csc(C)n1.Cc1csc(C)n1.[Cl][Rh][Cl],T/C,"endpoint: mean survival time, dose: 3.13 mg/kg/injection, schedule: Q04DX003 (ip), vehicle: distilled water + Tween-80",105 % of control
same,T/C,"endpoint: mean survival time, dose: 6.25 mg/kg/injection, schedule: Q04DX003 (ip), vehicle: distilled water + Tween-80",102 % of control
same,T/C,"endpoint: mean survival time, dose: 12.5 mg/kg/injection, schedule: Q04DX003 (ip), vehicle: distilled water + Tween-80",100 % of control
same,T/C,"endpoint: mean survival time, dose: 25.0 mg/kg/injection, schedule: Q04DX003 (ip), vehicle: distilled water + Tween-80",110 % of control
CCCCCCCCCCCC(=O)OCC1(C)COC(c2ccccc2)=N1 (stereo not drawn),T/C,"endpoint: mean survival time, dose: 100.0 mg/kg/injection, schedule: Q01DX001 (ip), vehicle: saline with Tween-80",97 % of control
same,T/C,"endpoint: mean survival time, dose: 200.0 mg/kg/injection, schedule: Q01DX001 (ip), vehicle: saline with Tween-80",104 % of control
same,T/C,"endpoint: mean survival time, dose: 400.0 mg/kg/injection, schedule: Q01DX001 (ip), vehicle: saline with Tween-80",104 % of control
CCN(CC)C(=O)c1cncc(-c2ccccc2)c1,T/C,[1],97 % of control
same,T/C,[2],98 % of control
CCOC(=O)C1Oc2ccc(Cl)cc2C1=O (stereo not drawn),T/C,"endpoint: mean survival time, dose: 100.0 mg/kg/injection, schedule: Q04DX002 (ip), vehicle: gum acacia",97 % of control
same,T/C,"endpoint: mean survival time, dose: 200.0 mg/kg/injection, schedule: Q04DX002 (ip), vehicle: gum acacia",97 % of control
same,T/C,"endpoint: mean survival time, dose: 400.0 mg/kg/injection, schedule: Q04DX002 (ip), vehicle: gum acacia",101 % of control
COC(=O)C1=C(C(=O)OC)C2CCC1O2,T/C,"endpoint: mean survival time, dose: 100.0 mg/kg/injection, schedule: Q01DX009 (ip), vehicle: saline",112 % of control
same,T/C,"endpoint: mean survival time, dose: 100.0 mg/kg/injection, schedule: Q04DX002 (ip), vehicle: saline with Tween-80",105 % of control
same,T/C,"endpoint: mean survival time, dose: 200.0 mg/kg/injection, schedule: Q01DX009 (ip), vehicle: saline",106 % of control
same,T/C,"endpoint: mean survival time, dose: 200.0 mg/kg/injection, schedule: Q04DX002 (ip), vehicle: saline with Tween-80",101 % of control
same,T/C,"endpoint: mean survival time, dose: 400.0 mg/kg/injection, schedule: Q01DX009 (ip), vehicle: saline",95 % of control
same,T/C,"endpoint: mean survival time, dose: 400.0 mg/kg/injection, schedule: Q04DX002 (ip), vehicle: saline with Tween-80",94 % of control
CCCCCCCCCCSCCCCCCCCSCCCCCCCCCC,T/C,[1],94 % of control
same,T/C,[2],87 % of control
same,T/C,"endpoint: mean survival time, dose: 400.0 mg/kg/injection, schedule: Q01DX001 (ip), vehicle: Klucel (hydroxypropylcellulose) (HPC)",96 % of control
Nc1nc(N)c2nc(CNc3ccc(Cl)c(Cl)c3)cnc2n1,T/C,"endpoint: mean survival time, dose: 1.0 mg/kg/injection, schedule: Q01DX009 (ip), vehicle: saline",103 % of control
same,T/C,"endpoint: mean survival time, dose: 2.0 mg/kg/injection, schedule: Q01DX009 (ip), vehicle: saline",101 % of control
same,T/C,"endpoint: mean survival time, dose: 4.0 mg/kg/injection, schedule: Q01DX009 (ip), vehicle: saline",94 % of control
same,T/C,"endpoint: mean survival time, dose: 4.0 mg/kg/injection, schedule: Q04DX003 (ip), vehicle: saline",90 % of control
same,T/C,"endpoint: mean survival time, dose: 8.0 mg/kg/injection, schedule: Q01DX009 (ip), vehicle: saline",90 % of control
same,T/C,"endpoint: mean survival time, dose: 8.0 mg/kg/injection, schedule: Q04DX003 (ip), vehicle: saline",100 % of control
same,T/C,"endpoint: mean survival time, dose: 16.0 mg/kg/injection, schedule: Q01DX009 (ip), vehicle: saline",87 % of control
same,T/C,"endpoint: mean survival time, dose: 16.0 mg/kg/injection, schedule: Q04DX003 (ip), vehicle: saline",92 % of control
same,T/C,"endpoint: mean survival time, dose: 32.0 mg/kg/injection, schedule: Q04DX003 (ip), vehicle: saline",97 % of control
same,T/C,"endpoint: mean survival time, dose: 64.0 mg/kg/injection, schedule: Q04DX003 (ip), vehicle: saline",89 % of control
